From ChEMBL document CHEMBL4145634, “Discovery of Janus Kinase 2 (JAK2) and Histone Deacetylase (HDAC) Dual Inhibitors as a Novel Strategy for the Combinational Treatment of Leukemia and Invasive Fungal Infections” (J Med Chem, 2018) come the findings set out here.

For orientation: IC50 means the concentration that gives 50% inhibition. The half-life is the time needed for the level to fall by half in the phase considered.

In data set [1] the test system is Candida albicans. In words: microbe, parasite or virus in culture. In kind it is functional. To be noted: Candida albicans, 0710922, 48 h.
Description: Antifungal activity against FLC resistant Candida albicans 0710922 assessed as fluconazol MIC50 after 48 hrs by checkerboard microdilution method
A further data set deals with K562. In words: Antiproliferative activity against human K562 cells after 48 hrs by CCK-8 assay. In kind it is functional, cell-based. To be noted: K562, 48 h.
The subject of data set [2] is Mus musculus. Kind of data set: Toxicity in BALB/C nude mouse xenografted with human HEL cells at 10 mg/kg, ip bid treated for 21 consecutive days. In kind it is organism-based. The conditions noted are these: in vivo.
The test system of data set [3] is Candida albicans. Kind of data set: microbe, parasite or virus in culture. The conditions noted are these: Candida albicans, 0304103, 48 h. In kind it is functional.
Description: Antifungal activity against FLC resistant Candida albicans 0304103 assessed as fluconazol MIC50 after 48 hrs by checkerboard microdilution method
Data set [4] addresses Histone deacetylase 3/NCoR1 (Homo sapiens, UniProt O15379). Kind of data set: Inhibition of human recombinant HDAC3/GST-tagged NCOR1 (397 to 503 residues) co-expressed in insect cells using (Ac-Leu-Gly-Lys(Ac)-AMC as substrate preincubated for 5 mins followed by substrate addition and measured after 30 mins by fluorescence assay.
The test system of data set [5] is HEL. In words: Induction of apoptosis in human HEL cells at 10 uM after 48 hrs by Annexin-V-FITC/propidium iodide staining based flow cytometry relative to control. The data set is classed as functional. (In flow cytometry, cells or beads pass a laser one at a time.)
In data set [6] the test system is Candida albicans. Kind of data set: Synergistic antifungal activity against FLC resistant Candida albicans 0710922 assessed as FIC index after 48 hrs by checkerboard microdilution method. In kind it is functional. For orientation: Dilution methods test growth across graded concentrations, often in twofold steps.
Another data set deals with HL-60. Kind of data set: Antiproliferative activity against human HL60 cells after 48 hrs by CCK-8 assay. In kind it is functional, cell-based. To be noted: HL-60, 48 h.
Data set [7] deals with T1, Histone deacetylase (Homo sapiens) (UniProt Q13547+O15379+Q9UBN7+Q92769+Q9UQL6+Q8WUI4+Q9BY41+Q96DB2+P56524+Q9UKV0+Q969S8). Kind of data set: Inhibition of HDAC in human HEL cells assessed as increased in histone H3 acetylation after 24 hrs by Western blot analysis. In kind it is cell-based.
For data set [8], the target named is T1, Histone deacetylase (Homo sapiens). Kind of data set: Inhibition of HDAC in human HEL cells assessed as increased in histone H4 acetylation after 24 hrs by Western blot analysis. The data set is classed as cell-based. On the technique in general: Immunoblotting shows a protein as a band on a membrane.
For data set [9], the system named is Candida albicans. In words: microbe, parasite or virus in culture. In kind it is functional. To be noted: Candida albicans, 0304103, 48 h. This is another data set of the same source.
Description: Antifungal activity against FLC resistant Candida albicans 0304103 after 48 hrs in presence of fluconazol by checkerboard microdilution method
Data set [10] relates to Mus musculus. In words: Protection against spleen enlargement in SCID mouse xenografted with human HEL cells at 10 mg/kg, ip qd. In kind it is functional, organism-based.
The subject of data set [11] is Candida albicans. In words: Antifungal activity against FLC resistant Candida albicans 100 after 48 hrs by checkerboard microdilution method. In kind it is functional. The conditions noted are these: Candida albicans, 100, 48 h.
The nature of data set [12]: Half life in ICR mouse liver microsomes at 1 uM measured up to 45 mins in presence of NADPH by LC-MS/MS analysis. In kind it is ADME, microsome.
In a further data set the target is Histone deacetylase 2 (Homo sapiens, UniProt Q92769). Kind of data set: Inhibition of recombinant HDAC2 (unknown origin) using (Ac-Leu-Gly-Lys(Ac)-AMC as substrate preincubated for 5 mins followed by substrate addition and measured after 30 mins by fluorescence assay.
Data set [13] deals with Tyrosine-protein kinase JAK2 (Homo sapiens, UniProt O60674). Kind of data set: Inhibition of JAK2 (unknown origin) using FAM-labeled peptide as substrate preincubated for 10 mins followed by substrate addition and measured after 25 mins in presence of ATP.
Data set [14] concerns the target T2, Tyrosine-protein kinase JAK3 (Homo sapiens, UniProt P52333).
T2 sequence (P52333 whole entry): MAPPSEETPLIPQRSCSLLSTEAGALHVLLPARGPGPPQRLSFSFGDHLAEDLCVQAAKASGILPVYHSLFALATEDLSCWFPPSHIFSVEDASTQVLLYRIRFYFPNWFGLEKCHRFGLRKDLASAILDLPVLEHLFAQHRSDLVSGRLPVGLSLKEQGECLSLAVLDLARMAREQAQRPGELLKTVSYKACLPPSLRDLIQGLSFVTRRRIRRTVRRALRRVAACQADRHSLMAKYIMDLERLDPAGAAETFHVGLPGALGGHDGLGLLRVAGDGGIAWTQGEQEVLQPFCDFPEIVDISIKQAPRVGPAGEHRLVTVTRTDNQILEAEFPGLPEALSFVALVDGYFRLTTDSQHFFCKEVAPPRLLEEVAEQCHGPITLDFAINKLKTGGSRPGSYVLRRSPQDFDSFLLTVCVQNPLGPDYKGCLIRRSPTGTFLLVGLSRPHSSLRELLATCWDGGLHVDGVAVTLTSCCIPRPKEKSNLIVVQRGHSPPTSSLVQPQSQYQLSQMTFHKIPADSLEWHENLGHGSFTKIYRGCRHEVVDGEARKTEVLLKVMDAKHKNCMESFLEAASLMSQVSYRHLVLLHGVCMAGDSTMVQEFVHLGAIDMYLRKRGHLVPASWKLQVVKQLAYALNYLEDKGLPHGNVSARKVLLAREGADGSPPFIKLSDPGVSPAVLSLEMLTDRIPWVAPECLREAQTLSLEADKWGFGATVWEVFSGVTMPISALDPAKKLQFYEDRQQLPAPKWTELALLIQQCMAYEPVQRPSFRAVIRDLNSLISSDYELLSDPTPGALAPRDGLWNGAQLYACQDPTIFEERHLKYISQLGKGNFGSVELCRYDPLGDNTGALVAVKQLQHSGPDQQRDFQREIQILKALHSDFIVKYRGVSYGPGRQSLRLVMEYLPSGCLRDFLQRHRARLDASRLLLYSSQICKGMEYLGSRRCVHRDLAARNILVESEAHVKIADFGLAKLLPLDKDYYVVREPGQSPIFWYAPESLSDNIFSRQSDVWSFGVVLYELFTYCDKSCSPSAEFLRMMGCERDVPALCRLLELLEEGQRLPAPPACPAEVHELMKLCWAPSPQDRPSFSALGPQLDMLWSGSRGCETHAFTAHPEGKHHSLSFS
In words: Inhibition of JAK3 (unknown origin) using FAM-labeled peptide as substrate preincubated for 10 mins followed by substrate addition and measured after 25 mins in presence of ATP.

Data set [15] has as its system HEL. Kind of data set: Antiproliferative activity against human HEL cells after 48 hrs by CCK-8 assay. The data set is classed as functional, cell-based.
The subject of data set [16] is Candida albicans. Kind of data set: Antifungal activity against FLC resistant Candida albicans 0304103 at 32 ug/ml up to 24 hrs in presence of fluconazol by checkerboard microdilution method. The data set is classed as functional, organism-based.

Values after ≈ are worked out from the molar mass of the structure shown. Active and inactive are the calls of the source.

Histone deacetylase 3/NCoR1, sequence (O15379 whole entry, the tested form may be a part): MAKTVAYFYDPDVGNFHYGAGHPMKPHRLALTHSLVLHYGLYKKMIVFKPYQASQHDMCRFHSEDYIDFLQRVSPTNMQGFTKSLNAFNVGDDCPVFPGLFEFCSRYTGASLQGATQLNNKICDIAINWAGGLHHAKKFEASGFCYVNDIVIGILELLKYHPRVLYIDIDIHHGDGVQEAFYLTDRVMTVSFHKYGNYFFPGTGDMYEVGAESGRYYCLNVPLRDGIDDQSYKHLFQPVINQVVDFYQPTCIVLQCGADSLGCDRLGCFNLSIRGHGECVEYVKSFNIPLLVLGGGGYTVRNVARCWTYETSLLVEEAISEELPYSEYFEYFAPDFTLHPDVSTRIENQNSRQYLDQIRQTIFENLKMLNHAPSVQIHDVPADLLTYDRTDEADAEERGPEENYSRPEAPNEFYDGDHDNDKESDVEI
Histone deacetylase 3/NCoR1, sequence (O75376 whole entry, further chain, the tested form may be a part): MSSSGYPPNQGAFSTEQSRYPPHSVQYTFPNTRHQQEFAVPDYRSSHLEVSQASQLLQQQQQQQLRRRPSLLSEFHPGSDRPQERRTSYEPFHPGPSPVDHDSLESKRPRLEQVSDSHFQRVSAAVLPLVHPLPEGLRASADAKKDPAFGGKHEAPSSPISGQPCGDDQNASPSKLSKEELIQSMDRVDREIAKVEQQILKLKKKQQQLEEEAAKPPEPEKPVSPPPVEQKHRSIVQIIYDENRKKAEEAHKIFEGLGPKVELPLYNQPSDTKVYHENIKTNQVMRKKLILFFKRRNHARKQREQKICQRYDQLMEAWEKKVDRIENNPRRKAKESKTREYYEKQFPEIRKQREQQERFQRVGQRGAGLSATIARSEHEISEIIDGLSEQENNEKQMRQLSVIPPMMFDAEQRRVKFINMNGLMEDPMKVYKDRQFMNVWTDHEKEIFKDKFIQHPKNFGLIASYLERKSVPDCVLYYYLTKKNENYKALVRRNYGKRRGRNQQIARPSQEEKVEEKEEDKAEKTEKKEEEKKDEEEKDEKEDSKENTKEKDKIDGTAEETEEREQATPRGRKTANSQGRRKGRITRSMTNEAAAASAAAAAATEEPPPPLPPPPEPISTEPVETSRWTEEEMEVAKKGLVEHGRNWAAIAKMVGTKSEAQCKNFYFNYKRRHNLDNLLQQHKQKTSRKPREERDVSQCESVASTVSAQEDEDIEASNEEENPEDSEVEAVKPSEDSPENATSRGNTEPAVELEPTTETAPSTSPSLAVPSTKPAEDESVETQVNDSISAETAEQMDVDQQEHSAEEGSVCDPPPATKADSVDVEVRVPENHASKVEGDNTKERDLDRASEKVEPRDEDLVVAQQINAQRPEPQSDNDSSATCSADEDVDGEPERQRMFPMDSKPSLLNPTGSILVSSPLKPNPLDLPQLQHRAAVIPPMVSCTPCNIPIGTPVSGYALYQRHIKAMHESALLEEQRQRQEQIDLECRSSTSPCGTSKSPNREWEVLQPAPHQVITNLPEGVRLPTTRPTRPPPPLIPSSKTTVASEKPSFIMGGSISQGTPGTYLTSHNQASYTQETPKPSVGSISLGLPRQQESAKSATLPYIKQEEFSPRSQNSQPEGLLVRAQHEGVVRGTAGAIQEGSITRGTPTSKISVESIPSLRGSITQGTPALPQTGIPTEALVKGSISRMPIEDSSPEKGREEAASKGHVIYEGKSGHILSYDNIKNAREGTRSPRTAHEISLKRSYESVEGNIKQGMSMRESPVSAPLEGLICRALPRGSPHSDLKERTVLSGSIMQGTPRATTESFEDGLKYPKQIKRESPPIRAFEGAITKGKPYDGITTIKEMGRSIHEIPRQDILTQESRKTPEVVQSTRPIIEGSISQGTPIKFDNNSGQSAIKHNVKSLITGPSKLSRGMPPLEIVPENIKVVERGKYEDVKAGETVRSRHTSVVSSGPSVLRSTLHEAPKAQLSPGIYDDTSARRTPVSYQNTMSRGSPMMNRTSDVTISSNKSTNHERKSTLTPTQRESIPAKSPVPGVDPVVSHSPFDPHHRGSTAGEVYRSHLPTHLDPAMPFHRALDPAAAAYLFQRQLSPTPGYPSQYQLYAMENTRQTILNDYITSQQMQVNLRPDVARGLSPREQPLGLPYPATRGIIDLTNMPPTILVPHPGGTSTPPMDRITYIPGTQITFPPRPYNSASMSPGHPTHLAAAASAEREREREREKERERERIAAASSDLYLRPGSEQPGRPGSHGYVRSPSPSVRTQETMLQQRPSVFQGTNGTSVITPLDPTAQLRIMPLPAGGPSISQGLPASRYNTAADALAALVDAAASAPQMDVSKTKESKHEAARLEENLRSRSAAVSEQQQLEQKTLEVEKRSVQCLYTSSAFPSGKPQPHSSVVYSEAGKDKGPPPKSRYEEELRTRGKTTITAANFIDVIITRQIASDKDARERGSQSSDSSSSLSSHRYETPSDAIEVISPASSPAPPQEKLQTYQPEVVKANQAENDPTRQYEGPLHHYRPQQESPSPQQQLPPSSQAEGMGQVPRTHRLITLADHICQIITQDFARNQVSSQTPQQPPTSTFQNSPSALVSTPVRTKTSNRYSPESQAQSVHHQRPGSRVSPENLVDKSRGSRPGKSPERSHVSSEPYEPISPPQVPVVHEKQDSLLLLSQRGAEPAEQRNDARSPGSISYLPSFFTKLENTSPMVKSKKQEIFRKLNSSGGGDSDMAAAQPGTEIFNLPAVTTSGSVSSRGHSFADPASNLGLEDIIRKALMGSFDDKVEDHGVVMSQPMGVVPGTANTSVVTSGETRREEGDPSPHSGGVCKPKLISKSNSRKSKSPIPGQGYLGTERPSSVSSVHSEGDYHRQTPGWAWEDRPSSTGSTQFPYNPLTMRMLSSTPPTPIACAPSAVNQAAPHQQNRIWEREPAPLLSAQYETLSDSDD
Histone deacetylase 2, sequence (Q92769 whole entry): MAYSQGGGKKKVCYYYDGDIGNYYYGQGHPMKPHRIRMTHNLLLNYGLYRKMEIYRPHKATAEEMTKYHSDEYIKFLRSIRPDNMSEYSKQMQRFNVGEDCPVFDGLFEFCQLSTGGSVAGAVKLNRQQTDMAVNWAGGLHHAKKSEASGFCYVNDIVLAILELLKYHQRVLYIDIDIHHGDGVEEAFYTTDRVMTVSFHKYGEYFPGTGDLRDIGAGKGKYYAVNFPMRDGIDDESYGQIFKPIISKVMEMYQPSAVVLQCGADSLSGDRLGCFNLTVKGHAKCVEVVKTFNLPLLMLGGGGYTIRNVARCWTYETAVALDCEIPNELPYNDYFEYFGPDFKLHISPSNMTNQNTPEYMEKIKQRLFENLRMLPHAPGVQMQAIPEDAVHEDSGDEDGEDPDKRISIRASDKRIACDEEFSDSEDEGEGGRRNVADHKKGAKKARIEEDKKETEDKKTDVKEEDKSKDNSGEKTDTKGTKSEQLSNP
Tyrosine-protein kinase JAK2, sequence (O60674 whole entry): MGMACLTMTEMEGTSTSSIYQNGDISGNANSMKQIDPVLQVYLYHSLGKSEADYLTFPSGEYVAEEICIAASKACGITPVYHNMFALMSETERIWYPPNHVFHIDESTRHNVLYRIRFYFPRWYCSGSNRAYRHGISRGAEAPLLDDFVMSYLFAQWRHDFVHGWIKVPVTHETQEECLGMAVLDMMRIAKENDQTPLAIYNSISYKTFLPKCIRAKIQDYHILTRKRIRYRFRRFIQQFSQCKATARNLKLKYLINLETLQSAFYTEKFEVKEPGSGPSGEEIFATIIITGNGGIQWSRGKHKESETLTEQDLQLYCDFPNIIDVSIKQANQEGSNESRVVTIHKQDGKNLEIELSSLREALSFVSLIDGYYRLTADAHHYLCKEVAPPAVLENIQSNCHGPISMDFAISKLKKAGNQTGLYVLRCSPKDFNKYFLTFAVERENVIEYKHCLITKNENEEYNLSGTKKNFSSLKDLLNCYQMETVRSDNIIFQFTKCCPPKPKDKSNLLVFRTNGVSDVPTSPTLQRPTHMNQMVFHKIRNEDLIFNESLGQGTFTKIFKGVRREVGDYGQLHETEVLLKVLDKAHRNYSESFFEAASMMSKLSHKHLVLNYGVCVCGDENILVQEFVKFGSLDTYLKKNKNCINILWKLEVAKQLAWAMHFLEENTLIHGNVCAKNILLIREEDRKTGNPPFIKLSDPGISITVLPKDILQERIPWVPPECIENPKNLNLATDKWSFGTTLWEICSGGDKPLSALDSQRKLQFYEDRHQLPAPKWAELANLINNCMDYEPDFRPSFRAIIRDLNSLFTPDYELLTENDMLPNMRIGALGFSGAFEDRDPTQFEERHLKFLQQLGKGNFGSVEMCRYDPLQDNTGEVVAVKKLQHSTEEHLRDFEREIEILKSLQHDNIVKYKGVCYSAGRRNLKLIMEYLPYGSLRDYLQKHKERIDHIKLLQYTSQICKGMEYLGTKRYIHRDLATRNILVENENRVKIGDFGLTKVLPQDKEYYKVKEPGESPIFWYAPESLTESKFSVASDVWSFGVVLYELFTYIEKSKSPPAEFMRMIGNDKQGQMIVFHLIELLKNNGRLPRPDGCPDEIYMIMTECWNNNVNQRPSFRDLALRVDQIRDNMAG

In the case of `CS(=O)(=O)Nc1ccc(-c2ccnc(Nc3ccc(N4CCC(C(=O)Nc5ccc(/C=C/C(=O)NO)cc5)CC4)cc3)n2)cc1`, the MIC50 with Candida albicans [1] was 1 µg/mL (≈ 1.59 µM); against Candida albicans [3], 0.5 µg/mL (≈ 0.797 µM); in the data set on Candida albicans [9] it was 4 µg/mL (≈ 6.37 µM); with Candida albicans [11], above 64 µg/mL. In addition, the IC50 came to 8700 nM in the data set on K562; 234 nM in data set [4]; 1500 nM in the data set with HL-60; 7470 nM on Histone deacetylase 2; 8 nM in data set [13]; 121 nM in data set [14]. The molecule also had an IC50 in the data set on HEL [15] of 340 nM. The Activity result in the data set with Mus musculus [2] was “Non-Toxic”; in the data set on HEL [5], 70.62%. In the data set on Candida albicans [6], the “fractional inhibitory concentration index (FICI)” value amounted to 0.14. The inhibition entry in data set [7] and in data set [8] was “Dose-dependent effect” in each case. The outcome with Mus musculus [10] and in the data set with Candida albicans [16] was Active. The half-life at 1 µM in [12] was 19.4 min.

Take `CS(=O)(=O)Nc1ccc(-c2ccnc(Nc3ccc(N4CCC(C(=O)NCCCCCCCC(=O)NO)CC4)cc3)n2)cc1`: the MIC50 with Candida albicans [1] was 0.25 µg/mL (≈ 0.401 µM); against Candida albicans [3], 0.25 µg/mL (≈ 0.401 µM); against Candida albicans [9], 8 µg/mL (≈ 12.8 µM); with Candida albicans [11], above 64 µg/mL. In addition, the 50% inhibitory concentration (IC50) in the data set with K562 is 5900 nM; in data set [4] it was 17 nM; with HL-60, above 50000 nM; at Histone deacetylase 2 it was 132 nM; in [13], 2 nM; in data set [14] it was 144 nM. Besides, the IC50 in the data set with HEL [15] worked out at 1800 nM. The Activity entry in the data set on Mus musculus [2] is given as “Non-Toxic”; in the data set on HEL [5], 89.2%. The “fractional inhibitory concentration index (FICI)” value with Candida albicans [6] worked out at 0.26. Also, the inhibition entry in [7] and in [8] was “Dose-dependent effect” in each case. Besides, the outcome in the data set on Mus musculus [10] and with Candida albicans [16] was Active. In addition, the half-life at 1 µM in [12] was 15.7 min.

`O=C(NO)c1ccc(-c2ccnc(Nc3ccc(N4CCOCC4)cc3)n2)cc1`: the MIC50 with Candida albicans [1] was 1 µg/mL (≈ 2.55 µM); against Candida albicans [3], 0.5 µg/mL (≈ 1.28 µM); in the data set on Candida albicans [9], 4 µg/mL (≈ 10.2 µM); in the data set with Candida albicans [11], above 64 µg/mL. For the same molecule, the 50% inhibitory concentration (IC50) with K562 worked out at 4000 nM; in data set [4], 45 nM; in the data set with HL-60, 6100 nM; on Histone deacetylase 2 it was 1700 nM; in [13], 85 nM; in data set [14], 517 nM. Besides, half-maximal inhibition with HEL [15] (IC50) required 3500 nM. The Activity entry in the data set with Mus musculus [2] is on record as “Non-Toxic”; in the data set on HEL [5], 86.2%. In the data set with Candida albicans [6], the “fractional inhibitory concentration index (FICI)” value came to 0.27. Besides, the inhibition result in data set [7] and in data set [8] was “Dose-dependent effect” in each case. Moreover, the result in the data set with Mus musculus [10] and in the data set with Candida albicans [16] was Active. The half-life at 1 µM in data set [12] worked out at 16.5 min.
